Laboratory results published in US11439607B2 (Paracelsus Neuroscience I, LLC, priority 2016, dated 2022).

Legend:
Healthy rats [1] = assay: Healthy rats - Paw pressure test; assay type: in vivo; details: Internal reference, Morphine 4 mg/kg s.c.
Protocol: (§1) Depending on the test, the percentage of activity was calculated from the mean value of the vehicle-treated animals and compared to naïve animals, control paw or cut-off value.

Healthy rats [2] = assay: Healthy rats - Tail flick test; assay type: in vivo; details: Internal reference, Morphine 4 mg/kg s.c.
Protocol: as §1

Formalin test = Formalin test - Score; assay type: in vivo, rodent; details: internal reference, Morphine 4 mg/kg s.c.
Protocol: as §1

Bennett model = Bennett model - Paw pressure test; assay type: in vivo, rodent; details: Internal reference, Morphine 4 mg/kg s.c.
Protocol: as §1

Brennan model = Brennan model - Electronic Von Frey test; assay type: in vivo, rodent; details: Internal reference, Morphine 4 mg/kg s.c.
Protocol: as §1

Carrageenan model = assay: Carrageenan - Paw pressure test; assay type: in vivo, rodent; details: Internal reference, Indomethacin 30 mg/kg p.o.
Protocol: as §1

Kaolin model = assay: Kaolin - Gait score; assay type: in vivo, rodent; details: Internal reference, Indomethacin 10 mg/kg p.o.
Protocol: as §1

CCI rats = assay: Chronic constriction injury (CCI) model, von Frey paw withdrawal threshold; assay type: in vivo, rat; details: gabapentin 100 mg/kg p.o., 2 hours after administration
Protocol: Peripheral nerve injury was performed according to the method of Bennett and Xie (Bennett and Xie, 1988), with paw withdrawal thresholds to Von Frey filament stimulation measured as described previously (Chaplan et al., 1994; Tal and Bennett, 1994).
In the first cohort of nerve injured rats, hindpaw mechanical hypersensitivity was evident by day 7 and maintained for the duration of the experiment (see FIG. 4A). […] Experiments were run using a simple cross-over design. Tactile hypersensitivity of rats was evaluated one day prior to drug testing. Drugs were allowed to wash out for one week at which time the mechanical hypersensitivity was reassessed. Rats were then randomly re-assigned to groups prior to the next arm of the study being run. In the final arm, tissue was collected from 3 animals from each group immediately after behavioral assessment of allodynia. Dosing of drugs, assessment of mechanical thresholds and collection of tissues were performed by individual experimenters all blinded to treatments.
All CCI data are presented as mean+/−S.E.M. and were analyzed using ANOVA followed by Fisher's PLSD post-hoc analysis (StatView, Cary, N.C.) when appropriate.

Oxaliplatin model = assay: Oxaliplatin - Acetone test (reaction time); assay type: in vivo, rodent; details: Internal reference, Gabapentin 100 mg/kg p.o.
Protocol: as §1

What does the source list for CN1CC[C@]23c4c5ccc(O)c4O[C@H]2[C@@H](O)C=C[C@H]3[C@H]1C5 [Morphine]?
% of activity vs. vehicle (Healthy rats [1]): 69%; % of activity vs. vehicle (Healthy rats [2]): 66%; % of activity vs. vehicle (Formalin test; early phase): 57%; % of activity vs. vehicle (Formalin test; late phase): 38%; % of activity vs. vehicle (Bennett model): 191%; % of activity vs. vehicle (Brennan model): 88%

What does the source list for COc1ccc2c(c1)c(CC(=O)O)c(C)n2C(=O)c1ccc(Cl)cc1 [Indomethacin]?
% of activity vs. vehicle (Carrageenan model): 100%; % of activity vs. vehicle (Kaolin model): 58%

For NCC1(CC(=O)O)CCCCC1 [Gabapentin], which “Reversal of mechanical hypersensitivity (tactile allodynia)” value (CCI rats) is on record?
Its value is 66%.

And the “% of activity vs. vehicle” value (Oxaliplatin model)?
The value was 82%.
